Experimental data as given in patent US20250074892A1, “CARBONYL BRIDGED HETEROCYCLIC COMPOUND, AND COMPOSITION AND APPLICATION THEREOF” (BEIJING SCITECH-MQ PHARMACEUTICALS LIMITED, priority 2022, published 2025).
Read-outs that look alike come from different tables or passages of the source. One block for each compound: values may come before it.

Legend:
HT29 cells = assay: Inhibition of cell necrosis (CCK8 method), HT29 cells; format: cell-based, human; details: Homo sapiens, HT-29, 16 h, HT29, Human TNF-α/AT-406/Z-VAD-FMK, 16 hours, CCK8
Summary of the method: (§1)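 HT29 (1.2×10^4/well) and L929 (2.0×10^4/well) cells were pretreated 30 min with compound, 9-point 4-fold series from 10 μM in duplicate. Necrosis was induced with human TNF-α 20 ng/mL, AT-406 […] and Z-VAD-FMK 20 μM for 16 h (HT29), or murine TNF-α 20 ng/mL and Z-VAD-FMK 25 μM for 4-8 h (L929). CCK8 viability; IC50 from dose-effect curve.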

[1] = Rat PK&BBB (pharmacokinetics and brain penetration); format: in vivo, SD rats; details: for clearance: read-out: Cl—obs; for bioavailability: PO 30 mg/kg vs IV 3 mg/kg; for Kp at 2 h / concentration at 2 h / concentration at 0 h / concentration at 0.083 h / concentration at 0.25 h / concentration at 0.5 h / concentration at 1 h / concentration at 4 h / concentration at 7 h / concentration at 24 h: Sprague-Dawley; for Kp at 2 h: brain / whole blood, read-out: Brain/blood ratio
Protocol: (§2) In this assay, the pharmacokinetic characteristics and ability to penetrate the blood-brain barrier of the compounds of the present application were assayed after administration of some of the compounds of the present application to SD rats, CD-1 mice or beagle dogs by single oral administration and intravenous injection.
(§3) 1. Intravenous (IV) injection group: an appropriate amount of the assay compound was weighed, and completely dissolved in an appropriate volume of vehicle. The mixture was stirred, vortexed and/or sonicated. Once a solution was obtained, the vehicle was gradually added to a final volume to reach the target concentration. The solution was vortexed, and sonicated to obtain a homogeneous solution. The solution was filtered through a 0.22 m PVDF membrane.
as §3, with “2. Oral (PO)” for “1. Intravenous (IV) injection”, “solution.” for “solution. The solution was filtered through a 0.22 m PVDF membrane.”
(§4) Meanwhile, the IV group was not fasted and the PO group was fasted overnight (>12 hrs) and given food 2 hrs after drug administration. All animals had free access to water. The dosing regimen and pharmacokinetic sampling regimen are given in Table 10 and Table 11 below, respectively.
Rats were administered according to the above protocol, and blood and brain tissue samples were collected and processed at predetermined time points (collection and processing were performed according to conventional methods in the art).
(§5) The brain was weighed and homogenized by adding 4 times of ultrapure water. Six times volume of acetonitrile was added respectively to the whole blood samples and brain homogenate (20 times volume of acetonitrile was added to the whole blood sample of mouse PK). The mixture was vortexed for 1 min and then centrifuged at 4° C., 4500 rpm for 15 min. According to the instrument response, the supernatant was diluted with diluent and the sample was analyzed by LC/MS.
(§6) Pharmacokinetic parameters were calculated using WinNonlin software. The following pharmacokinetic parameters were calculated if appropriate plasma/whole blood drug concentration-time data were available: CL (clearance); Vd (apparent volume of distribution); T1/2 (elimination half-life time); Cmax (peak concentration); Tmax (time to peak); AUC (area under plasma drug concentration-time curve); MRT (mean retention time); F % (bioavailability).

L929 cells = assay: Inhibition of cell necrosis (CCK8 method), L929 cells; format: cell-based, mouse; details: Mus musculus, L929, L929, Murine TNF-α/Z-VAD-FMK, 4-8 hours, CCK8
Summary of the method: as §1

[2] = Beagle PK (pharmacokinetics); format: in vivo, beagle dogs; details: whole blood, Beagle dog
Protocol: as §2, §3
as §3, with “2. Oral (PO)” for “1. Intravenous (IV) injection”, “solution.” for “solution. The solution was filtered through a 0.22 m PVDF membrane.”
as §4, §5, §6

[3] = PO 30 mg/kg, 2 h after administration
[4] = rat, brain, po, 30 mg/kg, PO 30 mg/kg, 2 h after administration, read-out: Brain concentration
[5] = rat, whole blood, iv, 3 mg/kg, IV 3 mg/kg, read-out: Blood drug concentration
[6] = rat, whole blood, iv, 3 mg/kg, IV 3 mg/kg, 2 hr, read-out: Blood drug concentration
[7] = rat, whole blood, po, 30 mg/kg, PO 30 mg/kg, read-out: Blood drug concentration
[8] = rat, whole blood, po, 30 mg/kg, PO 30 mg/kg, 2 hr, read-out: Blood drug concentration
[9] = rat, whole blood, po, 30 mg/kg, PO 30 mg/kg, 24 hr, read-out: Blood drug concentration
[10] = rat, whole blood, po, 30 mg/kg, PO 30 mg/kg, whole blood, 2 h after administration, read-out: Blood drug concentration
[11] = IV 1 mg/kg, read-out: Blood drug concentration
[12] = PO 3 mg/kg, read-out: Blood drug concentration

AUC(0-inf) ([1]; SD, whole blood, IV 3 mg/kg): 592 ± 57 ng·h/mL
AUC(0-t) ([1]; SD, whole blood, IV 3 mg/kg): 588 ± 56 ng·h/mL
Vd ([1]; SD, whole blood, IV 3 mg/kg): 7.84 ± 0.5 L/kg
half-life ([1]; SD, whole blood, IV 3 mg/kg): 1.07 ± 0.08 h
clearance ([1]; SD, whole blood, IV 3 mg/kg): 85 ± 8.4 mL/min/kg
AUC(0-inf) ([1]; SD, whole blood, PO 30 mg/kg): 1970 ± 768 ng·h/mL
AUC(0-t) ([1]; SD, whole blood, PO 30 mg/kg): 1900 ± 868 ng·h/mL
Cmax ([1]; SD, whole blood, PO 30 mg/kg): 581 ± 228 ng/mL
Tmax ([1]; SD, whole blood, PO 30 mg/kg): 1.17 ± 0.76 h
half-life ([1]; SD, whole blood, PO 30 mg/kg): 2.84 ± 0.46 h
bioavailability ([1]; SD, whole blood): 33.2 ± 13%
Kp at 2 h [1, 3]: 1.13
concentration at 2 h [1, 4]: 309 ng/g
concentration at 0 h [1, 5]: 0 ng/mL
concentration at 0.083 h [1, 5]: 865 ± 45 ng/mL
concentration at 0.25 h [1, 5]: 496 ± 33 ng/mL
concentration at 0.5 h [1, 5]: 295 ± 29 ng/mL
concentration at 1 h [1, 5]: 119 ± 14 ng/mL
concentration at 2 h [1, 6]: 61.9 ± 8.5 ng/mL
concentration at 4 h [1, 5]: 13.2 ± 5 ng/mL
concentration at 7 h [1, 5]: 2.37 ± 0.77 ng/mL
concentration at 0 h [1, 7]: 0 ng/mL
concentration at 0.25 h [1, 7]: 185 ± 86 ng/mL
concentration at 0.5 h [1, 7]: 416 ± 92 ng/mL
concentration at 1 h [1, 7]: 547 ± 248 ng/mL
concentration at 2 h [1, 8]: 372 ± 258 ng/mL
concentration at 4 h [1, 7]: 109 ± 99 ng/mL
concentration at 7 h [1, 7]: 59.8 ± 34.9 ng/mL
concentration at 24 h [1, 9]: 0.93 ng/mL
concentration at 2 h [1, 10]: 274 ng/mL
SMILES: O=C(C1CCN(c2cc(-c3cc(OCCCO)ccc3F)ccn2)CC1)N1N=CC[C@H]1c1cc(F)cc(F)c1 (racemic) [Example 40]
IC50 (HT29 cells): ≤ 10 nM
IC50 (L929 cells): 10 to 50 nM

concentration at 24 hr ([1]; SD, rat, whole blood, iv, 3 mg/kg, IV 3 mg/kg, 24 hr, read-out: Blood drug concentration): 19.9 ± 2.4 ng/mL
AUC(0-inf) ([1]; SD, whole blood, IV 3 mg/kg): 4140 ± 234 ng·h/mL
AUC(0-t) ([1]; SD, whole blood, IV 3 mg/kg): 3990 ± 225 ng·h/mL
Vd ([1]; SD, whole blood, IV 3 mg/kg): 5.5 ± 0.38 L/kg
half-life ([1]; SD, whole blood, IV 3 mg/kg): 5.25 ± 0.14 h
clearance ([1]; SD, whole blood, IV 3 mg/kg): 12.1 ± 0.7 mL/min/kg
AUC(0-inf) ([1]; SD, whole blood, PO 30 mg/kg): 26500 ± 3060 ng·h/mL
AUC(0-t) ([1]; SD, whole blood, PO 30 mg/kg): 24200 ± 2750 ng·h/mL
Cmax ([1]; SD, whole blood, PO 30 mg/kg): 1580 ± 205 ng/mL
Tmax ([1]; SD, whole blood, PO 30 mg/kg): 6 ± 1.73 h
half-life ([1]; SD, whole blood, PO 30 mg/kg): 6.33 ± 1.56 h
bioavailability ([1]; SD, whole blood): 64 ± 7.4%
Kp at 2 h [1, 3]: 0.915
concentration at 2 h [1, 4]: 1970 ng/g
concentration at 0 h [1, 5]: 0 ng/mL
concentration at 0.083 h [1, 5]: 798 ± 302 ng/mL
concentration at 0.25 h [1, 5]: 565 ± 166 ng/mL
concentration at 0.5 h [1, 5]: 445 ± 70 ng/mL
concentration at 1 h [1, 5]: 368 ± 53 ng/mL
concentration at 2 h [1, 6]: 303 ± 39 ng/mL
concentration at 4 h [1, 5]: 269 ± 25 ng/mL
concentration at 7 h [1, 5]: 199 ± 23 ng/mL
concentration at 0 h [1, 7]: 0 ng/mL
concentration at 0.25 h [1, 7]: 266 ± 89 ng/mL
concentration at 0.5 h [1, 7]: 654 ± 74 ng/mL
concentration at 1 h [1, 7]: 1250 ± 67 ng/mL
concentration at 2 h [1, 8]: 1300 ± 178 ng/mL
concentration at 4 h [1, 7]: 1380 ± 387 ng/mL
concentration at 7 h [1, 7]: 1550 ± 153 ng/mL
concentration at 24 h [1, 9]: 237 ± 95 ng/mL
concentration at 2 h [1, 10]: 2150 ng/mL
AUC(0-inf) ([2]; IV 1 mg/kg): 3380 ± 342 ng·h/mL
AUC(0-t) ([2]; IV 1 mg/kg): 2920 ± 268 ng·h/mL
Vd ([2]; IV 1 mg/kg): 3.7 ± 1.05 L/kg
half-life ([2]; IV 1 mg/kg): 8.72 ± 3 h
concentration at 0 hr [2, 11]: 0 ng/mL
concentration at 0.083 hr ([2]; IV 1 mg/kg, 0.083 hr, read-out: Blood drug concentration): 535 ± 62 ng/mL
concentration at 0.25 hr [2, 11]: 451 ± 77 ng/mL
concentration at 0.5 h [2, 11]: 390 ± 13 ng/mL
concentration at 1 h [2, 11]: 253 ± 49 ng/mL
concentration at 2 h [2, 11]: 236 ± 69 ng/mL
concentration at 4 h [2, 11]: 176 ± 29 ng/mL
concentration at 7 h [2, 11]: 133 ± 14 ng/mL
concentration at 24 hr ([2]; IV 1 mg/kg, 24 hr, read-out: Blood drug concentration): 32.9 ± 13.5 ng/mL
clearance ([2]; IV 1 mg/kg, read-out: Cl—obs): 4.97 ± 0.51 mL/min/kg
AUC(0-inf) ([2]; PO 3 mg/kg): 18000 ± 939 ng·h/mL
AUC(0-t) ([2]; PO 3 mg/kg): 11200 ± 2940 ng·h/mL
Cmax ([2]; PO 3 mg/kg): 1510 ± 396 ng/mL
Tmax ([2]; PO 3 mg/kg): 1.17 ± 0.76 h
half-life ([2]; PO 3 mg/kg): 18.1 ± 5 h
bioavailability ([2]; PO 3 mg/kg vs IV 1 mg/kg): 127 ± 28%
concentration at 0 hr [2, 12]: 0 ng/mL
concentration at 0.25 hr [2, 12]: 645 ± 362 ng/mL
concentration at 0.5 h [2, 12]: 1320 ± 406 ng/mL
concentration at 1 h [2, 12]: 1170 ± 696 ng/mL
concentration at 2 h [2, 12]: 1320 ± 320 ng/mL
concentration at 4 h [2, 12]: 560 ± 231 ng/mL
concentration at 7 h [2, 12]: 406 ± 145 ng/mL
concentration at 24 h ([2]; PO 3 mg/kg, 24 hr, read-out: Blood drug concentration): 260 ± 19 ng/mL
SMILES: CC(C)(O)COc1ccc(F)c(-c2ccnc(N3CCC(C(=O)N4N=CC[C@H]4c4cc(F)cc(F)c4)CC3)c2)c1 (racemic) [Example 42]
IC50 (HT29 cells): ≤ 10 nM
IC50 (L929 cells): ≤ 10 nM
